Legend:
[1] = target: T1, PI3Kγ (Homo sapiens, UniProt P48736); test: Biochemical assay using 200 μM ATP, Gamma
T1 construct: His tag (pFastbac HTb vector) (N); FLAG (N); made in house; host or cells: Sf21 insect cells (baculovirus)

[2] = target: T2, PI3Kβ (Homo sapiens, UniProt P42338); test: Biochemical assay of PI3K potency and selectivity using 20 μM ATP, Beta; settings: 20 μM ATP; for Beta/Delta Ratio: ratio of IC50 values, > = hypothetical ratio with 100 μM substituted for the missing IC50; for remaining activity at 100 µM: read-out: Beta: percent activity remaining at 100 μM, 100 μM compound did not inhibit by at least 50%; for IC50: read-out: Beta IC50
T2 construct: His tag (pFastbac HTa vector) (N); FLAG (N); made in house; host or cells: Sf21 insect cells (baculovirus)
T2 sequence (P42338 whole entry): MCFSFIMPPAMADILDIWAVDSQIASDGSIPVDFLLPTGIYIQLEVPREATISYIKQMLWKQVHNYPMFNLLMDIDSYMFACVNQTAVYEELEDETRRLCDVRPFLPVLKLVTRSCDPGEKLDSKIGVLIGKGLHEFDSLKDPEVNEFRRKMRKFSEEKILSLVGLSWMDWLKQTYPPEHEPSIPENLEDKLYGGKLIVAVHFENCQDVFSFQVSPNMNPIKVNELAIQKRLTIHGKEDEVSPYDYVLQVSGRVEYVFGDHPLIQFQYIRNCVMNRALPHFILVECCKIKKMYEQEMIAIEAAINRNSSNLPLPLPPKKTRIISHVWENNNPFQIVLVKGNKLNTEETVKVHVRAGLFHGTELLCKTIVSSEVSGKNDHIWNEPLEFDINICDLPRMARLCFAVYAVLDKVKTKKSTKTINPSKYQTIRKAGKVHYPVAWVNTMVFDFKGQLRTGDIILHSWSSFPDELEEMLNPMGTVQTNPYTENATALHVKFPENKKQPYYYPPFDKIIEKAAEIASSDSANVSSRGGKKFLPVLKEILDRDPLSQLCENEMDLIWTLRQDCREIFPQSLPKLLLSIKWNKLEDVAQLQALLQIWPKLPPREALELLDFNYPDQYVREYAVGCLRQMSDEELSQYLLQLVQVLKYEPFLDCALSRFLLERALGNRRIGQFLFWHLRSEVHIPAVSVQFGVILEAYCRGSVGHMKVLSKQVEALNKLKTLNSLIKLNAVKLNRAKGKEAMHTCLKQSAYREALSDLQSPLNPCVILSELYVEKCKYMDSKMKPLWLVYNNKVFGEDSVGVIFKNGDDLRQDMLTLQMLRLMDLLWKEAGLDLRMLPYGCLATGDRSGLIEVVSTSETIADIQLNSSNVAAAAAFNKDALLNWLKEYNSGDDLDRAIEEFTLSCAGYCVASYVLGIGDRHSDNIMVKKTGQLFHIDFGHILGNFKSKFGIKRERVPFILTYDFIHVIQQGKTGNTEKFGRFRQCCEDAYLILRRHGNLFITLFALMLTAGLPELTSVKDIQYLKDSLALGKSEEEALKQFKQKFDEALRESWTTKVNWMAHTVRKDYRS
T2 sequence (P27986 whole entry partner): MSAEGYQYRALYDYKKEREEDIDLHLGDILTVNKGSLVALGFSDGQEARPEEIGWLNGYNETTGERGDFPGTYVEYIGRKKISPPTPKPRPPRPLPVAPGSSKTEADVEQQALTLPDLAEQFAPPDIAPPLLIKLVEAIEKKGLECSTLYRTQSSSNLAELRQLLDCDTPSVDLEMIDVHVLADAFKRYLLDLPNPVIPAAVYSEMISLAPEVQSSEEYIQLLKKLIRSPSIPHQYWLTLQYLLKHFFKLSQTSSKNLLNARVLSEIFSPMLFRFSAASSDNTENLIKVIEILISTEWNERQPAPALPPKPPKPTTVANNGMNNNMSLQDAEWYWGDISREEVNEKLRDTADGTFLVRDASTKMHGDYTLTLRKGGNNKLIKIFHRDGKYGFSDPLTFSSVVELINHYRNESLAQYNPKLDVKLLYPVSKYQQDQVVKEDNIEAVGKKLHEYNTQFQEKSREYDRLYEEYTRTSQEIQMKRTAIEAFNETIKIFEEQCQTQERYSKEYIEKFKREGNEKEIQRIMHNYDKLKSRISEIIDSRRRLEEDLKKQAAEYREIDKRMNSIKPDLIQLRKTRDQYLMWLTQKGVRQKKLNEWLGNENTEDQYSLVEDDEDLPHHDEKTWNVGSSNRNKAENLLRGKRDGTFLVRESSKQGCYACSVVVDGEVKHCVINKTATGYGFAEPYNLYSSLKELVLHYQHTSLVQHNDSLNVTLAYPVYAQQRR
How it was run: (§1)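 Radioactive phosphate transfer from γ-[32P]ATP onto PIP2/PS liposomes was measured in 20 mM HEPES, pH 7.4, at 20 μM ATP. The 3× substrate stock contained […] and 6 μM PIP2/PS.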

[3] = test system: human neutrophils; test: Elastase exocytosis from neutrophils (fMLP-induced); format: cell-based; settings: neutrophil (PMN) elastase release
Method: Aliquots (8 mL) of heparinized blood from healthy volunteers were layered on 3 mL cushions of 7.3% FICOLL® (Sigma, St. Louis, Mo.) and 15.4% HYPAQUE® (Sigma) and centrifuged at 900 rpm for 30 min at room temperature in a table top centrifuge (Beckman). The neutrophil-rich band just above the FICOLL®-HYPAQUE® cushion was collected and washed with Hanks' balanced salt solution (HBSS) containing 0.1% gelatin. Residual erythrocytes were removed by hypotonic lysis with 0.2% NaCl. The neutrophil preparation was washed twice with HBSS containing 0.1% gelatin and used immediately.
In addition to superoxide generation, activated neutrophils also respond by releasing several proteases that are responsible for the destruction of tissues and cartilage during inflammation. As an indication of protease release, the effect of D-000 on elastase exocytosis was measured. Elastase exocytosis was quantitated by modification of the procedure described by Ossanna et al. (J Clin Invest, 77:1939-1951 (1986)), as follows. Purified human neutrophils (0.2×10^6) (treated with either DMSO or a serial dilution of D-000 in DMSO) were stimulated with fMLP in PBS containing 0.01 mg/mL cytochalasin B, 1.0 μM sodium azide (NaN3), 5 μg/mL L-methionine and 1 μM fMLP for 90 min at 37° C. in a 96-well plate. At the end of the incubation period, the plate was centrifuged for 5 min at 1000 rpm, and 90 μL of the supernatant was transferred to 10 μL of 10 mM solution of an elastase substrate peptide, MeO-suc-Ala-Ala-Pro-Val-pNA, wherein MeO-suc=methoxy-succinyl; pNA=p-nitroanilide (Calbiochem, San Diego, Calif.). Absorbance at 410 nm was monitored for 2 hr in a 96-well plate reader. To measure the relative amounts of elastase excytosed, all absorbance values were normalized to the values without any inhibitor. […] Inhibition was half-maximal at a concentration of about 2-3 μM D-000.
Using the methods described in Examples 3-5, above, compounds of the invention were tested for inhibitory activity and potency in assays of stimulated B and T cell proliferation, neutrophil (PMN) migration, and neutrophil (PMN) elastase release. In Table 4, the values shown are effective concentrations of the compound (EC50; μM). Where no value is given, no assay was performed.

[4] = target: T1, PI3Kγ; test: Biochemical assay of PI3K potency and selectivity using 20 μM ATP, Gamma
Source text: Recombinant baculoviruses containing the above clones were generated using manufacturer's recommended protocol (Life Technologies). Baculoviruses expressing His-tagged p110α, p110γ, or p110δ catalytic subunit and p85 subunit were coinfected into Sf21 insect cells. To enrich the heterodimeric enzyme complex, an excess amount of baculovirus expressing p85 subunit was infected, and the His-tagged p110 catalytic subunit complexed with p85 was purified on nickel affinity column. […] In an alternate approach, p101 can be cloned into baculovirus, to permit coexpression with its preferred binding partner p110γ. […]

[5] = test system: T cell proliferation; test: Stimulated T cell proliferation (Mouse TCE Stim, Table 4); format: cell-based; settings: stimulated T cell proliferation, read-out: Mouse TCE Stim (EC50)
[6] = target: T3, PI3Kα (Homo sapiens, UniProt P42336); test: Biochemical assay of PI3K potency and selectivity using 20 μM ATP, Alpha; settings: for Alpha/Delta Ratio / IC50: 20 μM ATP; for Alpha/Delta Ratio: ratio of IC50 values, > = hypothetical ratio with 100 μM substituted for the missing IC50; for remaining activity at 100 µM: read-out: percent activity remaining at 100 μM, 20 μM ATP, 100 μM compound did not inhibit by at least 50%; for IC50: read-out: Alpha IC50
T3 construct: His tag (pFastbac HTb vector) (N); FLAG; made in house; host or cells: Sf21 insect cells (baculovirus)
T3 sequence (P42336 whole entry): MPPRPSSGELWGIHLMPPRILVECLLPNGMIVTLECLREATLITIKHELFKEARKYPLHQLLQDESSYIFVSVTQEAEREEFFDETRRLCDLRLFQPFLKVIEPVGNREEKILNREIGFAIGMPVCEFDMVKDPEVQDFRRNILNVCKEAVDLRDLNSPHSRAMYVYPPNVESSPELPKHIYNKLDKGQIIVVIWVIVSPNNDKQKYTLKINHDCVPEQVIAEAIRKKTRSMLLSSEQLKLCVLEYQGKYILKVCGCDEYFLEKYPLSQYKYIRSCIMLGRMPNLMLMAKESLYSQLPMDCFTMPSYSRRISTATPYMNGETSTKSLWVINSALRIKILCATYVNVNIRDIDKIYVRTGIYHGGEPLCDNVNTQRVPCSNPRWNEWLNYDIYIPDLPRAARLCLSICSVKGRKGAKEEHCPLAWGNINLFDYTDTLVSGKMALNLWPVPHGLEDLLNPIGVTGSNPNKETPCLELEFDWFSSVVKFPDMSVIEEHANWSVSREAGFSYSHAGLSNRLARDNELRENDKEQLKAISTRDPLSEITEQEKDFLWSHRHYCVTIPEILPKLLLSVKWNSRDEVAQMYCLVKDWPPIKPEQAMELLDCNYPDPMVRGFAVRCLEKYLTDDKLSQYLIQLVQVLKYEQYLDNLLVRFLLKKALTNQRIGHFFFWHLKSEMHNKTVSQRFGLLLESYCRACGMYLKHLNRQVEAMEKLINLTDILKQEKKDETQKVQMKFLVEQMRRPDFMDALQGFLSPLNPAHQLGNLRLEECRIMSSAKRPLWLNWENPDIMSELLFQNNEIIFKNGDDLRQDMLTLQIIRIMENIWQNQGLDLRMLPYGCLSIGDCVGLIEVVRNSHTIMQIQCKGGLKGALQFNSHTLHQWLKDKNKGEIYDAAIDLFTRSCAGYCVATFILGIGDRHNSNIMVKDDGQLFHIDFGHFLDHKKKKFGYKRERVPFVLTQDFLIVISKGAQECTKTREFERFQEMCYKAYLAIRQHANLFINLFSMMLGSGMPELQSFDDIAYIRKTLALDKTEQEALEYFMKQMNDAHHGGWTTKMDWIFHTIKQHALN
T3 sequence (P27986 whole entry partner): as the sequence (P27986 whole entry partner) above
How it was run: as §1

[7] = target: T4, PI3Kδ (Homo sapiens, UniProt O00329, S253N); test: Biochemical assay using 200 μM ATP, Delta;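 further: radiometric filter-binding assay: PI3Kδ transfers ³²P from γ-[³²P]ATP onto PIP2/PS liposomes, counted by scintillation, enzyme-only wells as positive control, no-enzyme wells as background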
T4 sequence (O00329 whole entry S253N): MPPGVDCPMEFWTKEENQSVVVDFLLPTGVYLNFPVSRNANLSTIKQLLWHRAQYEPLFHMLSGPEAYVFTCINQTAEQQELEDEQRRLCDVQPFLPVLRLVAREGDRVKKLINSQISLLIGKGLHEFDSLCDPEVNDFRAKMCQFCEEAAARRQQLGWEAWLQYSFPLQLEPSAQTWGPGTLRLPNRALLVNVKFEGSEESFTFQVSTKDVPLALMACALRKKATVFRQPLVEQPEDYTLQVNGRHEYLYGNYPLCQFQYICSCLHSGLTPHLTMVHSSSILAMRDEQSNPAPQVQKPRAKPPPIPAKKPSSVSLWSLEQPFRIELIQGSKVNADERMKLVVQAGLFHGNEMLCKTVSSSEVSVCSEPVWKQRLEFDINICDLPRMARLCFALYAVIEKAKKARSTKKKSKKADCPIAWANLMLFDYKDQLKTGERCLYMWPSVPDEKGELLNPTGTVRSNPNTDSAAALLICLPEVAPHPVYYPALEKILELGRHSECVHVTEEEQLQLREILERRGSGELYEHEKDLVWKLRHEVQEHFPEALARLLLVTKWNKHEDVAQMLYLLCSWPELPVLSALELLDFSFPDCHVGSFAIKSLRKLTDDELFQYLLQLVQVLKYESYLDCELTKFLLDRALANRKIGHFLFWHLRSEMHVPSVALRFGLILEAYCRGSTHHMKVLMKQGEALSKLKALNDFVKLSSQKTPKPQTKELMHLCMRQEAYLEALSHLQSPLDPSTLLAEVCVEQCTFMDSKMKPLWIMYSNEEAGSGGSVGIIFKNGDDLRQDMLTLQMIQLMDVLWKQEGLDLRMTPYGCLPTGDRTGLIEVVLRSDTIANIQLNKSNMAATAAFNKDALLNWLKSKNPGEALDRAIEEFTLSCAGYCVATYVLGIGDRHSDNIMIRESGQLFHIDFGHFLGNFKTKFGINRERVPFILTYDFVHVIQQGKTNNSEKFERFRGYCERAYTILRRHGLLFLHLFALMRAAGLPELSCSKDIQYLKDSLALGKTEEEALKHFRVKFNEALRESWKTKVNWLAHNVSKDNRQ
T4 sequence (P27986 whole entry partner): as the sequence (P27986 whole entry partner) above
Method: (§2) PI3Kδ catalyzes a phosphotransfer from γ-[^32P]ATP to PIP2/PS liposomes at the D3′ position of the PIP2 lipid inositol ring. This reaction is MgCl2 dependent and is quenched in high molarity potassium phosphate buffer pH 8.0 containing 30 mM EDTA. […] The reaction products (and all unlabelled products) are transferred to a 96-well, prewetted PVDF filter plate, filtered, and washed in high molarity potassium phosphate. Scintillant is added to the dried wells and the incorporated radioactivity is quantitated.
(§3) This dilution established a final concentration of 200 μM ATP in the reaction volume. The reaction was stopped with 150 μL quench buffer (1.0 M potassium phosphate pH 8.0, 30 mM EDTA). A portion of the quenched solution (180 μL) was then transferred to a PVDF filter plate (Millipore # MAIP NOB prewetted with sequential 200 μL washes of 100% methanol, water, and finally 1.0 M potassium phosphate pH 8.0 wash buffer).
(§4) The PVDF filter plate was aspirated under moderate vacuum (2-5 mm Hg), washed with 5×200 μL of wash buffer, and then dried by aspiration. The filter was subsequently blotted, allowed to air dry completely, and inserted into a Wallac counting cassette with 50 μL of Ecoscint scintillation cocktail added per well.
(§5) Subsequent selectivity assays were done similarly using the same 3× substrate stocks except they contained 0.05 mCi/mL γ[^32P]ATP and 3 mM PIP2. Subsequent selectivity assays also used the same 3× enzyme stocks, except they now contained 3 nM of any given PI3K isoform.
(§6) For all selectivity assays, the test compounds were weighed out and dissolved into 10-50 mM stocks in 100% DMSO (depending on their respective solubilities) and stored at −20° C. […] From these dilutions, 20 μL was added into the assay wells alongside water blanks used for the enzyme (positive) control and the no enzyme (background) control.
(§7) This selectivity protocol is identical to that described above, except the 3× stock ATP concentration was 600 μM.

[8] = test system: Murine splenocytes (Balb/c); test: B cell proliferation in response to cell surface IgM stimulation; format: cell-based; settings: Mus musculus, Splenocyte; stimulated B cell proliferation; read-out: Mouse BCR Stim (EC50)
How it was run: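 Balb/c splenocytes (2×10^5/well, 10% FBS/RPMI) preincubated 30-60 min with inhibitor, then stimulated with goat F(ab′)2 anti-mouse IgM μ-chain at 25 μg/mL final. Cultured 3 days at 37° C., [^3H]-thymidine pulsed for final 4 h; incorporation counted as CPM. Values are EC50 (μM).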

[9] = target: T4, PI3Kδ; test: Biochemical assay of PI3K potency and selectivity using 20 μM ATP, Delta; parameters: His tag (pFastbac HTb vector) (N); FLAG; made in house; host or cells: Sf21 insect cells (baculovirus); settings: 20 μM ATP; read-out: Delta IC50
How it was run: as §1

[10] = target: T2, PI3Kβ; test: Biochemical assay using 200 μM ATP, Beta
Method: as §2, §3, §4, §5, §6, §7

[11] = target: T3, PI3Kα; test: Biochemical assay using 200 μM ATP, Alpha
Method: as §2, §3, §4, §5, §6, §7

T1 sequence (P48736 whole entry): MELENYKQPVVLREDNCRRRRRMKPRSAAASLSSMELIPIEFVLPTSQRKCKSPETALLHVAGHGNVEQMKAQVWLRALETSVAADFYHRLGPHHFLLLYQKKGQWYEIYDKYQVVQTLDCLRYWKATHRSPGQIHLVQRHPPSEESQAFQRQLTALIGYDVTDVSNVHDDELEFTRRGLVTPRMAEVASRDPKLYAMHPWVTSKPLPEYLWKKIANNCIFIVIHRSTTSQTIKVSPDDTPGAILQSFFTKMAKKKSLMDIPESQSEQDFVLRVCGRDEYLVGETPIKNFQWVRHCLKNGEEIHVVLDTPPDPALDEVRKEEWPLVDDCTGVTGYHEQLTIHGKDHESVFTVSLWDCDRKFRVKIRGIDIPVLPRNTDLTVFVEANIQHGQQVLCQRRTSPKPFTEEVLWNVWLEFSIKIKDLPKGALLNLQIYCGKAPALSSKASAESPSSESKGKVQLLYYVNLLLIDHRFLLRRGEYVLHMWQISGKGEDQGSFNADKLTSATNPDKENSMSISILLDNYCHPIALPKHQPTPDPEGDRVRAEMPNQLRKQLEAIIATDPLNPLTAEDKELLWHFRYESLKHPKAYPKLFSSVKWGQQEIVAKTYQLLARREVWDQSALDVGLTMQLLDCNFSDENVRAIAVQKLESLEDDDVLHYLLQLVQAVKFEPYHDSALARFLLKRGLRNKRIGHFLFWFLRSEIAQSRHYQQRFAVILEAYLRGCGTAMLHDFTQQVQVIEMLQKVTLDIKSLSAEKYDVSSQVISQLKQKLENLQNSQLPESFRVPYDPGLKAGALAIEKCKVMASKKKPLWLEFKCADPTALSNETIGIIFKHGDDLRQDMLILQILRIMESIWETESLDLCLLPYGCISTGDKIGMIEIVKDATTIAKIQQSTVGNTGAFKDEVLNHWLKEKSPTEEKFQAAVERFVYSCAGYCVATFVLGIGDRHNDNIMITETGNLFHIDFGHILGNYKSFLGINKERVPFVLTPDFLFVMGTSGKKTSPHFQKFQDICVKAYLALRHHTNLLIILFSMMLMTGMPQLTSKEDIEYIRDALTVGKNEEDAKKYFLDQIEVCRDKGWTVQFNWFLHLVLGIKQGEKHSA

Row | Compound | Gamma/Delta Ratio [1] | IC50 [1] [µM] | Beta/Delta Ratio [2] | remaining activity at 100 µM [2] [%] | EC50 [3] [µM] | IC50 [4] [µM] | Gamma/Delta Ratio ([4]; ratio of IC50 values) | EC50 [5] [µM] | Alpha/Delta Ratio [6] | remaining activity at 100 µM [6] [%] | IC50 [7] [µM] | EC50 [8] [µM] | IC50 [9] [µM] | Beta/Delta Ratio [10] | Alpha/Delta Ratio [11] | IC50 [2] [µM] | IC50 [6] [µM] | melting point | IC50 [10] [µM] | IC50 [11] [µM]
1 | CCCCn1c(CSc2ncnc3[nH]cnc23)nc2ccccc2c1=O [Compound D-038, 3-butyl-2-(9H-purin-6-ylsulfanylmethyl)-3H-quinazolin-4-one] | 31 | 55 | >170 | 63 | 5 | 60 | 100 | 2.9 | >167 | 77 | 1.8 | 1.4 ± 0.1 | 0.6 | 82 | 77 | – | – | – | – | –
2 | Nc1ncnc2c1ncn2Cc1nc2cccc(F)c2c(=O)n1Cc1ccccc1 [Compound D-049, 2-(6-aminopurin-9-ylmethyl)-3-benzyl-5-fluoro-3H-quinazolin-4-one] | – | – | 30 | – | 5 | – | – | 6.3 | >100 | 110 | – | 2 | 1 | – | – | 30 | – | – | – | –
3 | O=c1c2cc3ccccc3cc2nc(CSc2ncnc3[nH]cnc23)n1-c1ccccc1Cl [Compound D-019, 3-(2-Chlorophenyl)-2-(9H-purin-6-ylsulfanylmethyl)-3H-benzo[g]quinazolin-4-one] | 1 | 33 | 15 | – | – | – | – | 0.9 | 10 | – | 30 | 0.9 ± 0.01 | 7 | 3 | 7 | 105 | 67 | 247.8 to 254.4 °C (dec.) | 100 | –
4 | Nc1ncnc2c1ncn2Cc1nc2cc(F)ccc2c(=O)n1-c1ccccc1Cl [Compound D-003, 2-(6-Aminopurin-o-ylmethyl)-3-(2-chlorophenyl)-7-fluoro-3N-quinazolin-4-one] | – | – | >24 | 53 | – | – | – | 5.7 | 22 | – | – | 3.9 | 4 | – | – | – | 92 | 216.8 to 217.2 °C | – | –
5 | O=c1c2ccc(F)cc2nc(CSc2ncnc3[nH]cnc23)n1-c1ccccc1Cl [Compound D-022, 3-(2-Chlorophenyl)-7-fluoro-2-(9H-purin-6-ylsulfanylmethyl)-3H-quinazolin-4-one] | – | – | – | – | – | 40 | – | 2.3 | – | – | 4.2 | 1.8 | 0.8 | – | – | 110 | – | 151.4 to 154.2 °C | – | –
6 | O=c1c2cccc(Cl)c2nc(CSc2ncnc3[nH]cnc23)n1-c1ccccc1Cl [Compound D-021, 8-Chloro-3-(2-chlorophenyl)-2-(9H-purin-6-ylsulfanylmethyl)-3H-quinazolin-4-one] | – | – | 68 | – | – | – | – | 3.5 | 62 | – | – | 1.8 | 1.6 | – | – | 110 | 100 | 211.9 to 212.7 °C | – | –
7 | Cc1cccc2nc(Cn3cnc4c(N)ncnc43)n(-c3ccccc3Cl)c(=O)c12 [Compound D-007, 2-(6-Aminopurin-9-ylmethyl)-3-(2-chlorophenyl)-5-methyl-3H-quinazolin-4-one] | 121 | 88 ± 4 | 188 | – | 0.4 | – | – | 4.2 | >619 | 82 | 0.73 ± 0.2 | 0.3 ± 0.1 | 0.16 | 99 | 252 | 30 | – | 190.7 to 190.9 °C | 72 ± 12 | –
8 | Cc1cccc2nc(Cn3cnc4c(N)ncnc43)n(-c3ccccc3F)c(=O)c12 [Compound D-048, 2-(6-aminopurin-9-ylmethyl)-3-(2-fluorophenyl)-5-methyl-3H-quinazolin-4-one] | 91 | 123 ± 40 | 90 | – | 0.9 ± 0.2 | – | – | 5 | 449 | – | 1.4 ± 0.9 | 0.4 ± 0.2 | 0.16 | 70 | 67 | 14 | 70 | – | 95 ± 7 | 90 ± 57
9 | Nc1ncnc2c1ncn2Cc1nc2cccc(Cl)c2c(=O)n1-c1ccccc1Cl [Compound D-006, 2-(6-Aminopurin-o-ylmethyl)-5-chloro-3-(2-chlorophenyl)-3H-quinazolin-4-one] | 95 | 87 ± 33 | 38 | – | 0.3 ± 0.1 | – | – | 5.3 | >652 | 78 | 0.92 ± 0.1 | 0.2 ± 0.1 | 0.15 | 48 | 226 | 6 | – | 245.7 to 246 °C | 44 ± 5 | –
10 | Nc1ncnc2c1ncn2Cc1nc2cccc(F)c2c(=O)n1-c1ccccc1Cl [Compound D-005, 2-(6-Aminopurin-9-ylmethyl)-3-(2-chlorophenyl)-5-fluoro-3H-quinazolin-4-one] | 17 | – | 56 | – | 4.3 ± 1 | – | – | 3.9 | >121 | 89 | 11 | 0.7 ± 0.1 | 0.8 | 16 | 20 | 46 | – | 159 to 172 °C (dec.) | – | –
11 | Cc1cccc2nc(CSc3ncnc4[nH]cnc34)n(-c3ccccc3C(C)C)c(=O)c12 [Compound D-035, 3-(2-isopropylphenyl)-5-methyl-2-(9H-purin-6-ylsulfanylmethyl)-3H-quinazolin-4-one] | 14 | 6.8 ± 1 | 65 | – | 0.3 ± 0.1 | – | – | 2.9 ± 0.7 | 199 | – | 0.49 ± 0.1 | 0.2 ± 0.1 | 0.05 | 69 | 193 | 3 | 9 | – | 34 ± 6 | 95 ± 6

Reference: patent US20200061062A1, “INHIBITORS OF HUMAN PHOSPHATIDYLINOSITOL 3-KINASE DELTA” (ICOS Corporation, priority 2000, published 2020)
